Measured values: patent US6706763B1, “O-anisamide derivatives” (Kyorin Pharmaceutical Co., Ltd., priority 1999, dated 2004)
pEC50: −log10 of the molar value.

Molecular target: T1, ligand binding domain of human type PPARα fused with DNA-binding domain of GAL4 (Homo sapiens, UniProt Q07869)
T1 construct: expressed in transfected cells; host or cells: CHO cells
T1 sequence (Q07869 239-466 limits assumed): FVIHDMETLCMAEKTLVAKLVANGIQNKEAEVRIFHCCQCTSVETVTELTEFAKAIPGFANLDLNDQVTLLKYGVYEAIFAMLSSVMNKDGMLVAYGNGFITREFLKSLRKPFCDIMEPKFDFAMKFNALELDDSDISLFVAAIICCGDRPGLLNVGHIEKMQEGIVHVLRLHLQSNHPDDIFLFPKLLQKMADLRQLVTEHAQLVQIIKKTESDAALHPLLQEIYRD
Assay: Test of transcriptional activation on peroxisome proliferator-activated receptor α (GAL4 chimera luciferase reporter in CHO cells)
Format: cell-based
Conditions: CHO cells cotransfected with GAL4-human PPARα LBD receptor plasmid and luciferase reporter; luciferase activity after 24 hours
Source text: Test of transcriptional activation on peroxisome proliferator-activated receptors α and γ
To CHO cells cultured in a Ham's F-12 medium with 10% fetal calf serum, receptor plasmid that expresses fused protein of DNA-binding domain of GAL4 being transcription factor of yeast with ligand binding domain of human type PPARs α and γ (Biochemistry, 1993, 32, 5598), firefly luciferase reporter plasmid (Promega Corp.) that is activated by GAL4 and sea shiitake mushroom luciferase plasmid (Promega Corp.) for internal standard were cotransfected with lipofectamine. Thereafter, testing compound dissolved into dimethyl sulfoxide (DMSO) (final concentration of DMSO 0.1%) and control drug were adjusted with Ham's F-12 medium containing 10% defatted fetal calf serum to culture. After 24 hours, the luciferase activity was measured.

Row | pEC50 | SMILES
1 | 5.89 | CCCCC/C=C\C/C=C\C=C\[C@@H](O)C/C=C\CCCC(=O)O [(8S)-HETE, 8-hydroxyeicosatetraenoic acid, reference compound]
2 | 5.68 | COc1ccc(CC(SC)C(N)=O)cc1C(=O)NCc1ccc(C(F)(F)F)cc1 (stereo not shown) [Example 3, 5-[2-Carbamoyl-2-(methylthio)ethyl]-2-methoxy-N-(4-trifluoromethylbenzyl)benzamide]
3 | 5.92 | COc1ccc(CC(SC)C(=O)O)cc1C(=O)NCc1ccc(C(F)(F)F)cc1 (stereo not shown) [Example 7, 3-[4-Methoxy-3-[N-(4-trifluoromethylbenzyl)]carbamoylphenyl]-2-(methylthio)propionic acid]

Test system: not given
Assay: not given
Conditions: not given

Row | melting point | SMILES
4 | 167 to 168 °C | COc1ccc(CC(=O)O)cc1C(=O)NCc1ccc(C(F)(F)F)cc1 [Example 2, 4-Methoxy-3-[N-(4-trifluoromethylbenzyl)]carbamoylphenylacetic acid]
5 | 152.5 to 153.5 °C | COc1ccc(CC(SC)C(N)=O)cc1C(=O)NCc1ccc(C(F)(F)F)cc1 (stereo not shown) [Example 3, 5-[2-Carbamoyl-2-(methylthio)ethyl]-2-methoxy-N-(4-trifluoromethylbenzyl)benzamide]
6 | 159 to 161 °C | COc1ccc(CC(S)C(N)=O)cc1C(=O)NCc1ccc(C(F)(F)F)cc1 (stereo not shown) [Example 6, 5-(2-Carbamoyl-2-mercaptoethyl)-2-methoxy-N-(4-trifluoromethylbenzyl)benzamide]
7 | 158 to 159 °C | COc1ccc(CC(C(=O)O)S(C)(=O)=O)cc1C(=O)NCc1ccc(C(F)(F)F)cc1 (stereo not shown) [Example 9, 3-[4-Methoxy-3-[N-(4-trifluoromethylbenzyl)]carbamoylphenyl]-2-(methylsulfonyl)propionic acid]

Second part, the compound before the results:

Row | SMILES | melting point
8 | COc1ccc(C(=O)O)cc1C(=O)NCc1ccc(C(F)(F)F)cc1 [Example 1, 4-Methoxy-3-[N-(4-trifluoromethylbenzyl)carbamoyl]benzoic acid] | 235.5 to 236.5 °C
9 | COc1ccc(CC(C(N)=O)[S+](C)[O-])cc1C(=O)NCc1ccc(C(F)(F)F)cc1 (stereo not shown) [Example 4, 5-[2-Carbamoyl-2-(methylsulfinyl)ethyl]-2-methoxy-N-(4-trifluoromethylbenzyl)benzamide] | 170 to 171 °C
10 | COc1ccc(CC(C(N)=O)S(C)(=O)=O)cc1C(=O)NCc1ccc(C(F)(F)F)cc1 (stereo not shown) [Example 5, 5-[2-Carbamoyl-2-(methylsulfonyl)ethyl]-2-methoxy-N-(4-trifluoromethylbenzyl)benzamide] | 219 to 220 °C
